Data: a compilation of properties of binary mixtures (doi:10.1021/jp308139r)

Test: xn = mol fraction of the nth substance listed
Details: 101 kPa

## C[NH+](C)C.O=S(=O)([N-]S(=O)(=O)C(F)(F)F)C(F)(F)F + CC1COC(=O)O1
264.45 K, x2 = 0.701
  electrical conductivity: 0.519 S/m
273.15 K, x2 = 0.701
  electrical conductivity: 0.687 S/m
283.15 K, x2 = 0.701
  electrical conductivity: 1 S/m
293.15 K, x2 = 0.701
  electrical conductivity: 1.34 S/m
298.15 K, x1 = 0.0002
  electrical conductivity: 0.011 S/m
298.15 K, x1 = 0.0005
  electrical conductivity: 0.022 S/m
298.15 K, x1 = 0.002
  electrical conductivity: 0.066 S/m
298.15 K, x1 = 0.0055
  electrical conductivity: 0.155 S/m
298.15 K, x2 = 0.5091
  electrical conductivity: 1.41 S/m
298.15 K, x2 = 0.5632
  electrical conductivity: 1.5 S/m
298.15 K, x2 = 0.6802
  electrical conductivity: 1.66 S/m
298.15 K, x2 = 0.843
  electrical conductivity: 1.43 S/m
303.15 K, x2 = 0.701
  electrical conductivity: 1.74 S/m
313.15 K, x2 = 0.701
  electrical conductivity: 2.16 S/m
323.15 K, x2 = 0.701
  electrical conductivity: 2.61 S/m
333.15 K, x2 = 0.701
  electrical conductivity: 3.09 S/m
343.15 K, x2 = 0.701
  electrical conductivity: 3.59 S/m
353.15 K, x2 = 0.701
  electrical conductivity: 4.1 S/m

## C[S+](C)C.O=S(=O)([N-]S(=O)(=O)C(F)(F)F)C(F)(F)F + CC1COC(=O)O1
265.55 K, x2 = 0.76
  electrical conductivity: 0.468 S/m
276.95 K, x2 = 0.76
  electrical conductivity: 0.708 S/m
294.65 K, x2 = 0.76
  electrical conductivity: 1.18 S/m
298.15 K, x1 = 0.0001
  electrical conductivity: 0.009 S/m
298.15 K, x1 = 0.0003
  electrical conductivity: 0.023 S/m
298.15 K, x1 = 0.0053
  electrical conductivity: 0.177 S/m
298.15 K, x2 = 0.5156
  electrical conductivity: 1.07 S/m
298.15 K, x2 = 0.565
  electrical conductivity: 1.21 S/m
298.15 K, x2 = 0.6897
  electrical conductivity: 1.37 S/m
298.15 K, x2 = 0.7404
  electrical conductivity: 1.39 S/m
298.15 K, x2 = 0.8098
  electrical conductivity: 1.34 S/m
298.15 K, x2 = 0.8571
  electrical conductivity: 1.25 S/m
298.15 K, x2 = 0.9218
  electrical conductivity: 0.964 S/m
298.15 K, x2 = 0.9792
  electrical conductivity: 0.39 S/m
303.15 K, x2 = 0.76
  electrical conductivity: 1.44 S/m
313.15 K, x2 = 0.76
  electrical conductivity: 1.8 S/m
323.15 K, x2 = 0.76
  electrical conductivity: 2.16 S/m
343.15 K, x2 = 0.76
  electrical conductivity: 2.94 S/m
353.15 K, x2 = 0.76
  electrical conductivity: 3.34 S/m

## C[NH+](C)C.O=S(=O)([N-]S(=O)(=O)C(F)(F)F)C(F)(F)F + CC#N
265.55 K, x2 = 0.86
  electrical conductivity: 4.31 S/m
273.15 K, x2 = 0.86
  electrical conductivity: 4.81 S/m
283.15 K, x2 = 0.86
  electrical conductivity: 5.49 S/m
293.15 K, x2 = 0.86
  electrical conductivity: 6.17 S/m
298.15 K, x1 = 0.0001
  electrical conductivity: 0.022 S/m
298.15 K, x1 = 0.0004
  electrical conductivity: 0.273 S/m
298.15 K, x1 = 0.0008
  electrical conductivity: 0.438 S/m
298.15 K, x1 = 0.0021
  electrical conductivity: 0.755 S/m
298.15 K, x1 = 0.0083
  electrical conductivity: 1.81 S/m
298.15 K, x2 = 0.5587
  electrical conductivity: 3.69 S/m
298.15 K, x2 = 0.6
  electrical conductivity: 4.08 S/m
298.15 K, x2 = 0.72
  electrical conductivity: 5.54 S/m
298.15 K, x2 = 0.78
  electrical conductivity: 6.28 S/m
298.15 K, x2 = 0.84
  electrical conductivity: 6.76 S/m
298.15 K, x2 = 0.8901
  electrical conductivity: 6.73 S/m
298.15 K, x2 = 0.938
  electrical conductivity: 5.86 S/m
298.15 K, x2 = 0.9677
  electrical conductivity: 4.21 S/m
313.15 K, x2 = 0.86
  electrical conductivity: 7.54 S/m
323.15 K, x2 = 0.86
  electrical conductivity: 8.22 S/m
333.15 K, x2 = 0.86
  electrical conductivity: 8.88 S/m
343.15 K, x2 = 0.86
  electrical conductivity: 9.57 S/m
353.15 K, x2 = 0.86
  electrical conductivity: 10.2 S/m

## C[S+](C)C.O=S(=O)([N-]S(=O)(=O)C(F)(F)F)C(F)(F)F + CC#N
283.15 K, x2 = 0.87
  electrical conductivity: 4.66 S/m
293.45 K, x2 = 0.87
  electrical conductivity: 5.28 S/m
298.15 K, x1 = 0.0001
  electrical conductivity: 0.043 S/m
298.15 K, x1 = 0.0002
  electrical conductivity: 0.103 S/m
298.15 K, x1 = 0.0003
  electrical conductivity: 0.148 S/m
298.15 K, x1 = 0.0033
  electrical conductivity: 0.839 S/m
298.15 K, x1 = 0.0129
  electrical conductivity: 2.17 S/m
298.15 K, x2 = 0.4883
  electrical conductivity: 2 S/m
298.15 K, x2 = 0.56
  electrical conductivity: 2.74 S/m
298.15 K, x2 = 0.64
  electrical conductivity: 3.56 S/m
298.15 K, x2 = 0.72
  electrical conductivity: 4.44 S/m
298.15 K, x2 = 0.8
  electrical conductivity: 5.35 S/m
298.15 K, x2 = 0.86
  electrical conductivity: 5.74 S/m
298.15 K, x2 = 0.9497
  electrical conductivity: 4.59 S/m
303.25 K, x2 = 0.87
  electrical conductivity: 5.88 S/m
313.15 K, x2 = 0.87
  electrical conductivity: 6.45 S/m
333.15 K, x2 = 0.87
  electrical conductivity: 7.48 S/m
343.15 K, x2 = 0.87
  electrical conductivity: 8.05 S/m
353.15 K, x2 = 0.87
  electrical conductivity: 8.67 S/m

## O=C1CCCO1 + C[NH+](C)C.O=S(=O)([N-]S(=O)(=O)C(F)(F)F)C(F)(F)F
298.15 K, x1 = 1
  viscosity: 1.74 mPa·s
303.15 K, x1 = 1
  viscosity: 1.61 mPa·s
313.15 K, x1 = 1
  viscosity: 1.39 mPa·s
323.15 K, x1 = 1
  viscosity: 1.22 mPa·s
343.15 K, x1 = 1
  viscosity: 0.96 mPa·s

## C[NH+](C)C.O=S(=O)([N-]S(=O)(=O)C(F)(F)F)C(F)(F)F + O=C1CCCO1
263.15 K, x2 = 0.74
  electrical conductivity: 0.948 S/m
273.15 K, x2 = 0.74
  electrical conductivity: 1.19 S/m
283.15 K, x2 = 0.74
  electrical conductivity: 1.61 S/m
293.15 K, x2 = 0.74
  electrical conductivity: 2.01 S/m
298.15 K, x1 = 0.0001
  electrical conductivity: 0.005 S/m
298.15 K, x1 = 0.0003
  electrical conductivity: 0.027 S/m
298.15 K, x1 = 0.0046
  electrical conductivity: 0.214 S/m
298.15 K, x1 = 0.0188
  electrical conductivity: 0.613 S/m
298.15 K, x2 = 0.5778
  electrical conductivity: 2.09 S/m
298.15 K, x2 = 0.5976
  viscosity: 6.89 mPa·s
298.15 K, x2 = 0.639
  electrical conductivity: 2.26 S/m
298.15 K, x2 = 0.672
  viscosity: 5.66 mPa·s
298.15 K, x2 = 0.6802
  electrical conductivity: 2.35 S/m
298.15 K, x2 = 0.7426
  electrical conductivity: 2.44 S/m
298.15 K, x2 = 0.7428
  viscosity: 4.51 mPa·s
298.15 K, x2 = 0.8047
  electrical conductivity: 2.36 S/m
298.15 K, x2 = 0.8088
  viscosity: 3.5 mPa·s
298.15 K, x2 = 0.8692
  electrical conductivity: 2.06 S/m
298.15 K, x2 = 0.8803
  viscosity: 2.64 mPa·s
298.15 K, x2 = 0.9328
  electrical conductivity: 1.44 S/m
303.15 K, x2 = 0.5976
  viscosity: 5.87 mPa·s
303.15 K, x2 = 0.672
  viscosity: 4.85 mPa·s
303.15 K, x2 = 0.74
  electrical conductivity: 2.49 S/m
303.15 K, x2 = 0.7428
  viscosity: 3.91 mPa·s
313.15 K, x2 = 0.5976
  viscosity: 4.35 mPa·s
313.15 K, x2 = 0.74
  electrical conductivity: 2.97 S/m
313.15 K, x2 = 0.7428
  viscosity: 3.01 mPa·s
313.15 K, x2 = 0.8088
  viscosity: 2.35 mPa·s
323.15 K, x2 = 0.5976
  viscosity: 3.39 mPa·s
323.15 K, x2 = 0.672
  viscosity: 2.84 mPa·s
323.15 K, x2 = 0.74
  electrical conductivity: 3.47 S/m
323.15 K, x2 = 0.7428
  viscosity: 2.29 mPa·s
323.15 K, x2 = 0.8088
  viscosity: 1.91 mPa·s
323.15 K, x2 = 0.8803
  viscosity: 1.49 mPa·s
333.15 K, x2 = 0.5976
  viscosity: 2.74 mPa·s
333.15 K, x2 = 0.672
  viscosity: 2.34 mPa·s
333.15 K, x2 = 0.8088
  viscosity: 1.48 mPa·s
333.15 K, x2 = 0.8803
  viscosity: 1.2 mPa·s
335.15 K, x2 = 0.74
  electrical conductivity: 4.11 S/m
343.15 K, x2 = 0.5976
  viscosity: 2.22 mPa·s
343.15 K, x2 = 0.672
  viscosity: 1.9 mPa·s
343.15 K, x2 = 0.7428
  viscosity: 1.45 mPa·s
343.15 K, x2 = 0.8088
  viscosity: 1.17 mPa·s
343.45 K, x2 = 0.74
  electrical conductivity: 4.56 S/m
353.15 K, x2 = 0.74
  electrical conductivity: 5.09 S/m

## C[S+](C)C.O=S(=O)([N-]S(=O)(=O)C(F)(F)F)C(F)(F)F + O=C1CCCO1
264.75 K, x2 = 0.8
  electrical conductivity: 0.887 S/m
273.15 K, x2 = 0.8
  electrical conductivity: 1.11 S/m
283.85 K, x2 = 0.8
  electrical conductivity: 1.43 S/m
293.15 K, x2 = 0.8
  electrical conductivity: 1.75 S/m
298.15 K, x1 = 0.0001
  electrical conductivity: 0.011 S/m
298.15 K, x1 = 0.0002
  electrical conductivity: 0.015 S/m
298.15 K, x1 = 0.0003
  electrical conductivity: 0.025 S/m
298.15 K, x1 = 0.0005
  electrical conductivity: 0.038 S/m
298.15 K, x1 = 0.0008
  electrical conductivity: 0.052 S/m
298.15 K, x1 = 0.0047
  electrical conductivity: 0.226 S/m
298.15 K, x1 = 0.0187
  electrical conductivity: 0.583 S/m
298.15 K, x2 = 0.5398
  electrical conductivity: 1.35 S/m
298.15 K, x2 = 0.5798
  electrical conductivity: 1.49 S/m
298.15 K, x2 = 0.66
  electrical conductivity: 1.74 S/m
298.15 K, x2 = 0.72
  electrical conductivity: 1.9 S/m
298.15 K, x2 = 0.8
  electrical conductivity: 2.01 S/m
298.15 K, x2 = 0.8695
  electrical conductivity: 1.89 S/m
303.15 K, x2 = 0.8
  electrical conductivity: 2.11 S/m
313.15 K, x2 = 0.8
  electrical conductivity: 2.5 S/m
323.15 K, x2 = 0.8
  electrical conductivity: 2.9 S/m
333.15 K, x2 = 0.8
  electrical conductivity: 3.32 S/m
343.15 K, x2 = 0.8
  electrical conductivity: 3.74 S/m
353.15 K, x2 = 0.8
  electrical conductivity: 4.17 S/m
